According to ChEMBL document CHEMBL1158714, “Communiols E-H: new polyketide metabolites from the coprophilous fungus Podospora communis” (J Nat Prod, 2005):
The source made the active and inactive calls.

Legend:
Type in all cases: functional, organism-based
Candida albicans = assay: Antimicrobial activity against Candida albicans ATCC 90029 at 200 ug/disk
Staphylococcus aureus = assay: Antimicrobial activity against Staphylococcus aureus ATCC 29213 at 200 ug/disk
Bacillus subtilis = assay: Antimicrobial activity against Bacillus subtilis ATCC 6051 at 200 ug/disk

Measured: Activity

CC[C@H](O)[C@@H]1C[C@H]2CC[C@H](CO)[C@H]2O1
inactive: all assays above

CC[C@H](O)[C@@H]1C[C@@H](C/C=C/C=O)C(=O)O1
inactive: all assays above

CC[C@@H]1O[C@H]1C[C@H]1CC=C(CO)[C@H]1O
inactive: all assays above

CC[C@H](O)[C@@H]1C[C@H]2CC=C(CO)[C@H]2O1
inactive: all assays above
